In ChEMBL document CHEMBL1155237, “Selective inhibitors of the mutant B-Raf pathway: discovery of a potent and orally bioavailable aminoisoquinoline” (J Med Chem, 2009):

Tests used:
[1] = Oral bioavailability in Sprague-Dawley rat at 5 mg/kg; type: ADME, organism-based; details: in vivo
[2] = Elimination half life in Sprague-Dawley rat at 2 mg/kg, iv and 5 mg/kg, po; type: ADME, organism-based; details: in vivo, read-out: beta t1/2 (converted)
[3] = Clearance in Sprague-Dawley rat at 2 mg/kg, iv and 5 mg/kg, po; type: ADME, organism-based; details: in vivo
Angiopoietin-1 receptor = Angiopoietin-1 receptor (Homo sapiens, UniProt Q02763); experiment: Inhibition of Tie2
Chain of Angiopoietin-1 receptor (Q02763 whole entry): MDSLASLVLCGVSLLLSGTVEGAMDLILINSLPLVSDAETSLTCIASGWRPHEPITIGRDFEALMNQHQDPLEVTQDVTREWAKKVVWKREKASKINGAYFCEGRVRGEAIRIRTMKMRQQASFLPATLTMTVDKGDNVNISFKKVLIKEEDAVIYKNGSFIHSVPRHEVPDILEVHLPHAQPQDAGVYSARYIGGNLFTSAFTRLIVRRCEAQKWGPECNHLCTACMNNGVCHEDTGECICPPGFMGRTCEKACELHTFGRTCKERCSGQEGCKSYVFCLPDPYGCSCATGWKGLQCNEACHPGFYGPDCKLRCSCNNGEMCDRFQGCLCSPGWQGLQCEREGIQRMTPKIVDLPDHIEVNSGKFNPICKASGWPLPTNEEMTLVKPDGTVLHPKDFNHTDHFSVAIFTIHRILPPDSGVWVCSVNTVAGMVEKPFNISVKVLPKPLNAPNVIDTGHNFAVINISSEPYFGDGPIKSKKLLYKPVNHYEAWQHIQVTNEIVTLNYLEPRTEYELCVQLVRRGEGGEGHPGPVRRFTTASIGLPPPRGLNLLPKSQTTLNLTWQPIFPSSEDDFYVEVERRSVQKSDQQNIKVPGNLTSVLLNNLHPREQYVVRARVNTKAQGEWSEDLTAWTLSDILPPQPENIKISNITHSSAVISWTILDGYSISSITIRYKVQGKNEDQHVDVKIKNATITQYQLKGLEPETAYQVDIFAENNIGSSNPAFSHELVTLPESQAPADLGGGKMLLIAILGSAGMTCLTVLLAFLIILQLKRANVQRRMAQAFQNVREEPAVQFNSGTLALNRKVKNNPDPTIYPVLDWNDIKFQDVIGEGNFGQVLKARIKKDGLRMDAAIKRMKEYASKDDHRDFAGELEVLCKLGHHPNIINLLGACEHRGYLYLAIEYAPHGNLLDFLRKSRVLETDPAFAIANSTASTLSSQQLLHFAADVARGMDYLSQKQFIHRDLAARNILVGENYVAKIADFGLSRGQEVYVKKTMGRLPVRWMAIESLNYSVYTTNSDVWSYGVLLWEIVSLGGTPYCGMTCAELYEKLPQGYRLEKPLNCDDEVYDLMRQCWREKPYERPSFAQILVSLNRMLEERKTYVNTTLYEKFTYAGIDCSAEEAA

[4] = molecular target: Tyrosine-protein kinase Lck (Homo sapiens, UniProt P06239); experiment: Inhibition of LCK
Chain of Tyrosine-protein kinase Lck (P06239 whole entry): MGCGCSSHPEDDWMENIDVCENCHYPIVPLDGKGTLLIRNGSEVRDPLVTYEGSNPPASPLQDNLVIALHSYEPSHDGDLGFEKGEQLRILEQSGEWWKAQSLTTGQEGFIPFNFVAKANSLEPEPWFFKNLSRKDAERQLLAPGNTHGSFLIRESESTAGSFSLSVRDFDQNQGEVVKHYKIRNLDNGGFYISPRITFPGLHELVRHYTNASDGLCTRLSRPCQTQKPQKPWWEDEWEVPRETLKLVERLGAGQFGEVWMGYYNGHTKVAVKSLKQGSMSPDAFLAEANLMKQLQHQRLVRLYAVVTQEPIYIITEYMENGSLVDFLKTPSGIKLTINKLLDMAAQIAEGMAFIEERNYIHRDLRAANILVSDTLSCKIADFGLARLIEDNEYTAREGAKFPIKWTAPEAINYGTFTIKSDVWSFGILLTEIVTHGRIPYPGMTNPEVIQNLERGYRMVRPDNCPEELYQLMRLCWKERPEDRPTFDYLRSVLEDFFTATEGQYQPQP

[5] = molecular target: Mitogen-activated protein kinase 14 (Homo sapiens, UniProt Q16539); experiment: Inhibition of p38alpha
Chain of Mitogen-activated protein kinase 14 (Q16539 whole entry): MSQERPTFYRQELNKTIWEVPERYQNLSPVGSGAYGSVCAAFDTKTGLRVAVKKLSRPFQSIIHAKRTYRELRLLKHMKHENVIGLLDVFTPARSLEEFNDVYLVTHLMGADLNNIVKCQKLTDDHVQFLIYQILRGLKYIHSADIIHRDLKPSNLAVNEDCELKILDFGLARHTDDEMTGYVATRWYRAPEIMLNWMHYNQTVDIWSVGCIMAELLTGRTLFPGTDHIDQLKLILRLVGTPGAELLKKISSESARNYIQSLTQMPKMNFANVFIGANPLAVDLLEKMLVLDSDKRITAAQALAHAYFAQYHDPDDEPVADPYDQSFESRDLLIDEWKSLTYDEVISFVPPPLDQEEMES

[6] = molecular target: Serine/threonine-protein kinase B-raf (Homo sapiens, UniProt P15056, V600E); experiment: Inhibition of recombinant Braf V600E mutant
Chain of Serine/threonine-protein kinase B-raf (P15056 2-766 V600E limits assumed): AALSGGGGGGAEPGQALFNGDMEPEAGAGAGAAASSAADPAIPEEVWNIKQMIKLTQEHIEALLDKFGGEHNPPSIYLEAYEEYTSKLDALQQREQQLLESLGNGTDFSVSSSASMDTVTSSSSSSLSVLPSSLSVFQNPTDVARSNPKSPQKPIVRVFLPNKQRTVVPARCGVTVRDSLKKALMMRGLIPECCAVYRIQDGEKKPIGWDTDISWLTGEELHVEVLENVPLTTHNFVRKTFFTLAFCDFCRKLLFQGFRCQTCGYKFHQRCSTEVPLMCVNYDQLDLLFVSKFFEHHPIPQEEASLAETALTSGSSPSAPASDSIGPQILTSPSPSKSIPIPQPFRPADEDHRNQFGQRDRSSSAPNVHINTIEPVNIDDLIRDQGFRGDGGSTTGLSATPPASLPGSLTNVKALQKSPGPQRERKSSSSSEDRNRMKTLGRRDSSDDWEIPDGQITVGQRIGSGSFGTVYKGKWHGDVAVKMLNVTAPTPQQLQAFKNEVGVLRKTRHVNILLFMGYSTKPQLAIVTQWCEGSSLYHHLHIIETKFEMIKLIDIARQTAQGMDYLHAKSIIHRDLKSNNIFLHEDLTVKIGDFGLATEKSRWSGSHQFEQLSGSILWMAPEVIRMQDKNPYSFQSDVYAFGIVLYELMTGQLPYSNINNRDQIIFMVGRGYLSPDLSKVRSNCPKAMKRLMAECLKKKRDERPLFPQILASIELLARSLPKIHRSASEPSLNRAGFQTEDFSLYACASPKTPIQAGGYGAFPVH

[7] = molecular target: Vascular endothelial growth factor receptor 2 (Homo sapiens, UniProt P35968); experiment: Inhibition of KDR
Chain of Vascular endothelial growth factor receptor 2 (P35968 whole entry): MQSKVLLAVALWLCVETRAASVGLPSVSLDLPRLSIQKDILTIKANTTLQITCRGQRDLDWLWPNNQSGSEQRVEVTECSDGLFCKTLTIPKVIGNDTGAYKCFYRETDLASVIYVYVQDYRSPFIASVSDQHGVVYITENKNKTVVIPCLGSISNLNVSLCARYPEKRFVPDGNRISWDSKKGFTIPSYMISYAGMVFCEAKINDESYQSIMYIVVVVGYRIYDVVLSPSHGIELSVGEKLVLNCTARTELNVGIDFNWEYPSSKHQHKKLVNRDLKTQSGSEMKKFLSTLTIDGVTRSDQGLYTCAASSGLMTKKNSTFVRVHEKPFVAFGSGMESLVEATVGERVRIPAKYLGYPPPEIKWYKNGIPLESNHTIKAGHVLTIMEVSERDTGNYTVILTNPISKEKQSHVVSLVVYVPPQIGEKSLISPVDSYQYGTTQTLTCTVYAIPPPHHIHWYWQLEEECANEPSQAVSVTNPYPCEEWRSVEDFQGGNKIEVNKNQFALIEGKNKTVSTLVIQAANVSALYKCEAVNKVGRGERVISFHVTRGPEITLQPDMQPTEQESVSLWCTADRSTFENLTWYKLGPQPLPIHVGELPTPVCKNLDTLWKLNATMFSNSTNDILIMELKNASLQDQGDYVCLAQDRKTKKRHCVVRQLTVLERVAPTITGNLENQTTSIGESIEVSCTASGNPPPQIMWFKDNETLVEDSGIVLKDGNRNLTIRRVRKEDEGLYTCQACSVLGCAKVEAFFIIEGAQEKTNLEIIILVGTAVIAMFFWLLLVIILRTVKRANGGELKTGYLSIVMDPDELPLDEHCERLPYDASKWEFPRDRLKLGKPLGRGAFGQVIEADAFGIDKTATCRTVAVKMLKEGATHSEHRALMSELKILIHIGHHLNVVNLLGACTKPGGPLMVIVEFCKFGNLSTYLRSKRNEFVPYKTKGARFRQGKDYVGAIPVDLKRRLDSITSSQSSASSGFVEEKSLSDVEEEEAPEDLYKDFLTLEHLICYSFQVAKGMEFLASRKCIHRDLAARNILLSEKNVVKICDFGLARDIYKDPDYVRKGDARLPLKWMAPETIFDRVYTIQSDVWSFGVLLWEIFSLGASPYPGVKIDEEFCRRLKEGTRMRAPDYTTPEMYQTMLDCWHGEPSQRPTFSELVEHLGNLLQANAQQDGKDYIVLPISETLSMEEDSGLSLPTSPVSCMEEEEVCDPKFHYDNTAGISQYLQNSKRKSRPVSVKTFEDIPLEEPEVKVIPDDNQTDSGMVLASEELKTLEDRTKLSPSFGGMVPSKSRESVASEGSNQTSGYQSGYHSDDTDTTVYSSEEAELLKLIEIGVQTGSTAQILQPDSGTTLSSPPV

[8] = Volume of distribution at steady state in Sprague-Dawley rat at 2 mg/kg, iv and 5 mg/kg, po; type: ADME, organism-based; details: in vivo, read-out: Vdss
A-375 [9] = experiment: Antitumor activity against human A375 SQ2 cells xenografted in CD1 mouse assessed as inhibition of tumor growth at 20 mg/kg, po bid for 14 days; type: functional; parameters: Activity: scale not given: the % may be the effect or the level left; details: for inhibition in vivo at 20 mg/kg: Mus musculus, A375-SQ2, 336 h
Mus musculus [10] = experiment: Inhibition of ERK phosphorylation in human A375 SQ2 cells xenografted CD1 mouse at 10 mg/kg, po bid after 6 hrs; type: functional; details: CD1, A375-SQ2, 6 h
Mus musculus [11] = experiment: Inhibition of ERK phosphorylation in human A375 SQ2 cells xenografted CD1 mouse at 35 mg/kg, po bid after 6 hrs; type: functional; details: CD1, A375-SQ2, 6 h
[12] = AUC (0 to 24 hrs) in human A375 SQ2 cells xenografted po dosed CD1 mouse administered twice daily for 14 days; type: ADME, organism-based; parameters: time < 24 hr, route oral; details: in vivo
A-375 [13] = experiment: Antitumor activity against human A375 SQ2 cells xenografted in CD1 mouse assessed as inhibition of tumor growth at 10 mg/kg, po bid for 14 days; type: functional; details: A375-SQ2, 336 h
A-375 [14] = experiment: Antitumor activity against human A375 SQ2 cells xenografted in CD1 mouse assessed as regression of tumor growth at 35 mg/kg, po bid for 14 days; type: functional
A-375 [15] = experiment: Antitumor activity against human A375 SQ2 cells xenografted in po dosed CD1 mouse assessed as inhibition of tumor growth administered twice daily for 14 days; type: functional; details: 336 h
Mus musculus [16] = experiment: Inhibition of ERK phosphorylation in human A375 SQ2 cells xenografted CD1 mouse at 20 mg/kg, po bid after 6 hrs; type: functional; details: CD1, A375-SQ2, 6 h
Mus musculus [17] = experiment: Inhibition of ERK phosphorylation in human A375 SQ2 cells xenografted CD1 mouse at 5 mg/kg, po bid after 6 hrs; type: functional; details: CD1, A-375, 6 h
A-375 [18] = experiment: Antitumor activity against human A375 SQ2 cells xenografted in CD1 mouse assessed as inhibition of tumor growth at 5 mg/kg, po bid for 14 days; type: functional; details: A375-SQ2, 336 h
Mus musculus [19] = experiment: Inhibition of ERK phosphorylation in human A375 SQ2 cells xenografted CD1 mouse at 100 mg/kg, po bid after 6 hrs; type: functional; details: CD1, A375-SQ2, 6 h
A-375 [20] = experiment: Antitumor activity against human A375 SQ2 cells xenografted in CD1 mouse assessed as regression of tumor growth at 100 mg/kg, po bid for 14 days; type: functional
A-375 [21] = experiment: Antitumor activity against human A375 SQ2 cells xenografted in CD1 mouse assessed as inhibition of tumor growth at 30 mg/kg, po bid for 14 days; type: functional; details: A-375, 336 h
Mus musculus [22] = experiment: Inhibition of ERK phosphorylation in human A375 SQ2 cells xenografted CD1 mouse at 30 mg/kg, po bid after 6 hrs; type: functional; details: CD1, A375-SQ2, 6 h
Mus musculus [23] = experiment: Inhibition of ERK phosphorylation in human A375 SQ2 cells xenografted CD1 mouse at 60 mg/kg, po bid after 6 hrs; type: functional; details: CD1, A375-SQ2, 6 h
A-375 [24] = experiment: Antitumor activity against human A375 SQ2 cells xenografted in CD1 mouse assessed as inhibition of tumor growth at 60 mg/kg, po bid for 14 days; type: functional; details: A375-SQ2, 336 h
A-375 [25] = experiment: Antitumor activity against human A375 SQ2 cells xenografted in CD1 mouse assessed as inhibition of tumor growth at 17.5 mg/kg, po bid for 14 days; type: functional; details: A375-SQ2, 336 h
Mus musculus [26] = experiment: Inhibition of ERK phosphorylation in human A375 SQ2 cells xenografted CD1 mouse at 17.5 mg/kg, po bid after 6 hrs; type: functional; details: CD1, A-375, 6 h

SMILES	bioavailability [1] [%]	half-life [2] [h]	clearance [3] [mL/min/kg]	IC50 (Angiopoietin-1 receptor) [nM]	IC50 [4] [nM]	IC50 [5] [nM]	IC50 [7] [nM]	Vd [8] [L/kg]	IC50 [6] [nM]	inhibition in vivo at 35 mg/kg (Mus musculus [11]) [%]	Activity (A-375 [14]) [%]	ED50 (A-375 [15]) [mg/kg]	other results
Cc1ccc2c(Nc3cccc(C(F)(F)F)c3)nccc2c1Nc1ncccc1-c1ccncn1	22	4.5	20	47	81	> 1600	760	3.7	17				
CNc1cc(-c2cccnc2Nc2c(C)ccc3c(Nc4ccc(Cl)cc4)nccc23)ncn1	100	4.7	4.83	24	12	> 1600	300	1.7	56				
CNc1ncc2cc(-c3cc(C(=O)Nc4cccc(C(F)(F)F)c4)ccc3C)ccc2n1		2.3	26.7	1.8	0.27	3.5		3.6	1.7				
CNc1ncc2cc(-c3c(C)ccc4c(Nc5ccc(Cl)cc5)nccc34)ccc2n1				> 1000	110	> 1600	> 25000		5.4				
CNc1ncc2cc(-c3c(C)ccc4c(Nc5ccc6c(c5)NC(=O)C6(C)C)nccc34)ccc2n1	55	4.8	10.8	> 1000	78	51	240	4.3	21	85	75	4.7	Activity (A-375 [9]): 55%; inhibition in vivo at 10 mg/kg (Mus musculus [10]): 60%; inhibition in vivo at 10 mg/kg (A-375 [13]): 85%; inhibition in vivo at 20 mg/kg (Mus musculus [16]): 82%

Further lines, with some results ahead:

bioavailability [1] [%]	half-life [2] [h]	clearance [3] [mL/min/kg]	IC50 (Angiopoietin-1 receptor) [nM]	IC50 [4] [nM]	IC50 [5] [nM]	IC50 [7] [nM]	Vd [8] [L/kg]	SMILES	IC50 [6] [nM]	inhibition in vivo at 35 mg/kg (Mus musculus [11]) [%]	Activity (A-375 [14]) [%]	ED50 (A-375 [15]) [mg/kg]	other results
83	3.5	11.2	520	280	> 1600	> 25000	2.2	Cc1ccc2c(Nc3ccc(Cl)cc3)nccc2c1Nc1ncccc1-c1ccncn1	3.4				
100	2.9	5.5	5.8	23	350	170	0.72	CNc1cc(-c2cccnc2Nc2c(C)ccc3c(Nc4ccc5sc(C)nc5c4)nccc23)ncn1		66	24	11	inhibition in vivo at 20 mg/kg (A-375 [9]): 85%; inhibition in vivo at 10 mg/kg (Mus musculus [10]): 30%; AUC at 24 h [12]: 12300 ng·h/mL; inhibition in vivo at 10 mg/kg (A-375 [13]): 42%; inhibition in vivo at 20 mg/kg (Mus musculus [16]): 52%
76	2.8	12.2	8.1	210	450	420	2.2	C#Cc1cccc(Nc2nccc3c(Nc4ncccc4-c4cc(NC)ncn4)c(C)ccc23)c1		81	54	13	inhibition in vivo at 20 mg/kg (A-375 [9]): 78%; AUC at 24 h [12]: 9410 ng·h/mL; inhibition in vivo at 20 mg/kg (Mus musculus [16]): 40%; inhibition in vivo at 5 mg/kg (Mus musculus [17]): 5%; inhibition in vivo at 5 mg/kg (A-375 [18]): 18%
24	3.9	30	200	21	110	230	5.5	CNc1ncc2cc(-c3c(C)ccc4c(Nc5cc(C(C)(C)C)nn5C)nccc34)ccc2n1				27	inhibition in vivo at 100 mg/kg (Mus musculus [19]): 78%; Activity (A-375 [20]): 45%; inhibition in vivo at 30 mg/kg (A-375 [21]): 60%; inhibition in vivo at 30 mg/kg (Mus musculus [22]): 50%; inhibition in vivo at 60 mg/kg (Mus musculus [23]): 67%; inhibition in vivo at 60 mg/kg (A-375 [24]): 90%
100	2.7	1.83	400	150	> 1600	> 1000	0.37	CNc1cc(-c2cccnc2Nc2c(C)ccc3c(Nc4ccc(C#N)cc4)nccc23)ncn1	39	78	17	11.5	inhibition in vivo at 10 mg/kg (Mus musculus [10]): 21%; inhibition in vivo at 17.5 mg/kg (A-375 [25]): 80%; AUC at 24 h [12]: 52800 ng·h/mL; inhibition in vivo at 10 mg/kg (A-375 [13]): 50%; inhibition in vivo at 17.5 mg/kg (Mus musculus [26]): 63%
16	1.3	35			12	4.2	1.9	Cc1ccc(C(=O)Nc2cccc(C(F)(F)F)c2)cc1Nc1ncccc1-c1ccncn1	0.46				
